Usually IC50 stands for the concentration at which inhibition is half-maximal.

The values that follow come from patent US10793563B2, “GCN2 inhibitors and uses thereof” (Merck Patent GmbH, priority 2018, dated 2020).

In one test the target is GCN2 kinase (Homo sapiens (Human), UniProt Q9P2K8). Kind of test: GCN2 Enzyme Inhibition Assay (Transcreener ADP2 fluorescence polarization). The format is biochemical. Particulars: 280 μM ATP, 200 μM (RS)7 peptide, 4 nM GCN2, 25° C. The essentials:
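Transcreener ADP2 fluorescence polarization detection of ADP from 4 nM GCN2 with (RS)7 substrate in 25 mM Tris-HCl pH 7.5, 50 mM NaCl, 10 mM MgCl2, 1 mM DTT. Compound pre-incubated with enzyme 10 min at 25 °C; reaction started by ATP, run 1 h at 25 °C. IC50 and Ki(app) by tight-binding fit.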
(In fluorescence polarisation assays a small probe gives low polarisation when free and higher when bound to something large.)

Test [1] has as its target intracellular GCN2 (phosphorylation of the GCN2 substrate eIF2α) (Homo sapiens (Human), UniProt Q9P2K8). Kind of test: GCN2 Cellular Inhibition Assay (AlphaScreen SureFire P-eIF2α Ser51, borrelidin-treated U2OS cells). Type of test: cell-based. Conditions: 10 μM borrelidin, 1 h, phosphorylated eIF2α Ser51, read-out: GCN2 Biomarker (IC50). The essentials: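 U2OS cells adhered overnight, then given compound (top 40 μM, 4-fold serial dilutions) plus 10 μM borrelidin for 1 h at 37 °C. Lysates assayed for eIF2α phospho-Ser51 by AlphaScreen SureFire; % inhibition versus borrelidin-only wells.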

Test [2] deals with primary human pan T-cells. Briefly: Human IL-2 Assay for GCN2 Inhibition (IL-2 secretion from T cells in low amino acid condition). The format is cell-based. Conditions: IL-2 secretion from human T cells stimulated with anti-CD3/CD28 in low amino acid condition, ELISA; for EC50: read-out: IL2/T-cell EC50. An excerpt: Tumor microenvironment is profoundly immuno-suppressive. This may be attributed to the depletion of amino acids (like arginine and tryptophan) which triggers the activation of GCN2 in immune cells, including T cell and myeloid cells. In T cells, activation of GCN2 leads to reduce effector functions of CD8 T cells and induction and/or maintenance of immuno-suppressive T-regs. Inhibition of that immuno-suppressive response by GCN2 inhibitors enables an anti-cancer immune response by activating effector T-cells. Herein we describe an in-vitro system we established using human T-cells stimulated in low amino acid condition in order to engage the GCN2 biology. The method described involves the modulation of IL-2 levels secreted by human T cells in responses to the GCN2 inhibitors disclosed herein.
Amino acid-free RPMI was reconstituted with all but one of the amino acids found in standard RMPI (e.g. Arginine, Tryptophan), 10% charcoal-stripped fetal bovine serum, 100 Units/mL penicillin and 0.1 mg/mL streptomycin. Primary human pan T-cells were isolated using Pan T Cell Isolation Kit, human (MACS Miltenyi biotech Cat # Order no. 130-096-535) from apheresis cones and 5×104 pan T-cells per well. The purified T cells are seeded in Nunc™ 96-Well Polystyrene Round Bottom Microwell Plates (the cells are rested in No TRP media in a 15 ml falcon tube in the incubator for 30-45 minutes while titrations for tryptophan and the GCN2 inhibitor compound are made) A plate matrix was developed to titrate both a GCN2 inhibitor and the amino acid of interest ranging from “No Amino Acid” condition, up to the concentration found in the regular RPMI media (20 μM for TRP and 950 μM for Arginine). The cells were incubated for 30 min at 37° C. with the GCN2 inhibitor and then stimulated with 5×104 anti-CD3/CD28 Dynabeads® per well. After 96 hours of incubation the IL-2 level in the supernatant were measured using ELISA (R&D systems Cat # DY202 (Human IL-2 DuoSet ELISA). Data were plotted in GraphPad Prism software and EC50 is calculated.
In general terms: ELISA stands for enzyme-linked immunosorbent assay.

Structures are written as SMILES. Read-outs that look alike come from different tables or passages of the source.

Sequence of intracellular GCN2 (phosphorylation of the GCN2 substrate eIF2α) (Q9P2K8 whole entry): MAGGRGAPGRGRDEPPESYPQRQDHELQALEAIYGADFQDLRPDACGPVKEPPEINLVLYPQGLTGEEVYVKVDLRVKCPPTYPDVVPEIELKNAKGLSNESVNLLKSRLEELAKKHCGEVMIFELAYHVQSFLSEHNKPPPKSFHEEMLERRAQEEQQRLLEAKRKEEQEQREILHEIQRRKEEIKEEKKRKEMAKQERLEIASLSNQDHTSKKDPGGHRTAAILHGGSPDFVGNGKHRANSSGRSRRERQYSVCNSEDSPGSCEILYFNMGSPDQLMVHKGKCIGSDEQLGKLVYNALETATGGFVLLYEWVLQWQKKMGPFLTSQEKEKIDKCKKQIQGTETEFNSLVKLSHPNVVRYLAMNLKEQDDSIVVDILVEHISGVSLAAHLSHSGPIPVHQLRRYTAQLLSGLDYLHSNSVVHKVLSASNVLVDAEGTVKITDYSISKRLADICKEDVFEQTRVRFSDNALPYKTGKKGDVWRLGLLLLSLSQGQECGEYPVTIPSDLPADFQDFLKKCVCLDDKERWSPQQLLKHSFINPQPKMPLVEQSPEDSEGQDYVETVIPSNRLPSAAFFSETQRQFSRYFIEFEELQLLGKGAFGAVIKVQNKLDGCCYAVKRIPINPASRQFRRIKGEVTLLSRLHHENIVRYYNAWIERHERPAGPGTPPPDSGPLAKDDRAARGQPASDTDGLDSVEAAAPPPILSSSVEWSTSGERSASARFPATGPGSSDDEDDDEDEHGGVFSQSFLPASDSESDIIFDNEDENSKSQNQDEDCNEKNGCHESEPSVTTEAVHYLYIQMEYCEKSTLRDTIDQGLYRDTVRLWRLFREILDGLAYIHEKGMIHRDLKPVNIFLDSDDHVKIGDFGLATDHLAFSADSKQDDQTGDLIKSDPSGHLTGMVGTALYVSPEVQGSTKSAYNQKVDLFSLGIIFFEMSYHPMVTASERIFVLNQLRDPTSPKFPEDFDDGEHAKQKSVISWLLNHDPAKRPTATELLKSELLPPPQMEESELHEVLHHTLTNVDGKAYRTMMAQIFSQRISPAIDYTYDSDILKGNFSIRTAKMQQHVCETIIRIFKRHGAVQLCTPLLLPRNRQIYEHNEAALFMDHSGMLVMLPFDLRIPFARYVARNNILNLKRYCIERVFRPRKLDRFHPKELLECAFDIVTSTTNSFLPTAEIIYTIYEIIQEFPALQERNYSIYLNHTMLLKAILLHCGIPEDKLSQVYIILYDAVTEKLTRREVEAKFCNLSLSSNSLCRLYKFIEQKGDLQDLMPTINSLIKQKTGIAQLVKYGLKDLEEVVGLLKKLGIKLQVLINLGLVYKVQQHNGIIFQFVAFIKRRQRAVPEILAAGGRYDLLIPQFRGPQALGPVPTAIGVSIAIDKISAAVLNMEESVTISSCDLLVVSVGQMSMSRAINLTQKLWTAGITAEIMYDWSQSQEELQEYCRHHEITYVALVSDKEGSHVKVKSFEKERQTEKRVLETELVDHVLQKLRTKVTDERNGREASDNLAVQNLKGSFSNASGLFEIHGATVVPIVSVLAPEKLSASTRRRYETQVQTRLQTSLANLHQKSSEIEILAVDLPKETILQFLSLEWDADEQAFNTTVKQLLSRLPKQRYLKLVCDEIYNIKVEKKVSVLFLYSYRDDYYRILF
Sequence of GCN2 kinase (Q9P2K8 whole entry): as above

Consider `Cc1[nH]ncc1[C@@H]1C[C@H](O)CN(c2ccnc(-c3cnc4ccc(C(F)(F)F)cn34)n2)C1` [I-314, (3 S,5S)-5-(3-Methyl-1H-pyrazol-4-yl)-1-[2-(6-trifluoromethyl-imidazo[1,2-a]pyridin-3-yl)-pyrimidin-4-yl]-piperidin-3-ol], for which the IC50 at GCN2 kinase was less than 0.01 µM; in test [1], less than 0.5 µM. Moreover, the “IL2/T-cell EC50” value in test [2] (96 hours) is recorded as “− (“−” for not active)”.

In the case of `FC(F)(F)c1ccc2ncc(-c3nccc(N4CCN(C5CC6(COC6)C5)[C@H](c5cn[nH]c5)C4)n3)n2c1` [I-504, (R)-3-(4-(3-(1H-pyrazol-4-yl)-4-(2-oxaspiro[3.3]heptan-6-yl)piperazin-1-yl)pyrimidin-2-yl)-6-(trifluoromethyl)imidazo[1,2-a]pyridine], the IC50 against GCN2 kinase is less than 0.01 µM; in test [1] it was less than 0.5 µM. Also, the EC50 in test [2] (Homo sapiens, T-cell, 96 h) lay within 0.1 to 0.5 µM.

Regarding `Cc1cnc(N2C[C@H](C)C[C@H](c3cn[nH]c3)C2)nc1-c1cnc2ccc(Cl)cn12` [I-185, 6-chloro-3-(5-methyl-2-((3R,5R)-3-methyl-5-(1H-pyrazol-4-yl)piperidin-1-yl)pyrimidin-4-yl)imidazo[1,2-a]pyridine], the IC50 against GCN2 kinase is 0.01 to 0.1 µM; in test [1], less than 0.5 µM. In test [2] (96 hours), the “IL2/T-cell EC50” value was “− (“−” for not active)”.

With `Cc1n[nH]nc1[C@@H]1C[C@H](C)CN(c2ccnc(-c3cnc4ccc(C(F)(F)F)cn34)n2)C1` [I-409, 3-(4-((3S,5R)-3-methyl-5-(5-methyl-2H-1,2,3-triazol-4-yl)piperidin-1-yl)pyrimidin-2-yl)-6-(trifluoromethyl)imidazo[1,2-a]pyridine], the IC50 on GCN2 kinase is 0.01 to 0.1 µM; in test [1] it was less than 0.5 µM. Besides, the EC50 in test [2] (Homo sapiens, T-cell, 96 h) is more than 0.5 µM.

As for `C[C@H]1C[C@@H](C(N)=O)CN(c2ccnc(-c3cnc4ccc(C(F)(F)F)cn34)n2)C1` [I-148, (3R,5S)-5-methyl-1-(2-(6-(trifluoromethyl)imidazo[1,2-a]pyridin-3-yl)pyrimidin-4-yl)piperidine-3-carboxamide], the results for the IC50 (at GCN2 kinase; in test [1]) were less than 0.01 µM and less than 0.5 µM, respectively. Also, the EC50 in test [2] (Homo sapiens, T-cell, 96 h) lay in the range of 0.1 to 0.5 µM.

On GCN2 kinase (Ki(app)), `NC(=O)[C@H]1CCCN(c2ccnc(-c3cnc4ccc(Cl)cn34)n2)C1` [I-102, (S)-1-(2-(6-chloroimidazo[1,2-a]pyridin-3-yl)pyrimidin-4-yl)piperidine-3-carboxamide] registered a Ki of less than 0.01 µM. Besides, the IC50 in test [1] is less than 0.5 µM. Further, the EC50 in test [2] (Homo sapiens, T-cell, 96 h) fell in the range of 0.1 to 0.5 µM.

In the case of `C[C@@H]1CN(c2nccc(-c3cnc4ccc(Cl)cn34)n2)C[C@H](c2cn[nH]c2)O1` [I-248, 6-Chloro-3-{2-[(2R,6S)-2-methyl-6-(1H-pyrazol-4-yl)-morpholin-4-yl]-pyrimidin-4-yl}-imidazo[1,2-a]pyridine], the half-maximal inhibitory concentration (IC50) is less than 0.01 µM at GCN2 kinase and less than 0.5 µM in test [1]. For the same compound, in test [2] (Homo sapiens, T-cell, 96 h), the EC50 lay in the range of 0.1 to 0.5 µM.

Consider `CS(=O)(=O)C1CC(N2CCN(c3ccnc(-c4cnc5ccc(C(F)(F)F)cn45)n3)C[C@@H]2c2cn[nH]c2)C1` (stereo partly drawn) [I-495, 3-{4-[(S)-4-(3-Methanesulfonyl-cyclobutyl)-3-(1H-pyrazol-4-yl)-piperazin-1-yl]-pyrimidin-2-yl}-6-trifluoromethyl-imidazo[1,2-a]pyridine], for which the IC50 at GCN2 kinase was less than 0.01 µM; in test [1], less than 0.5 µM. In test [2] (Homo sapiens, T-cell, 96 h), the EC50 is more than 0.5 µM.

With `Cc1[nH]ncc1[C@@H]1CN(c2ccnc(-c3cnc4ccc(C(F)(F)F)cn34)n2)C[C@H](C)O1` [I-124, 3-{4-[(2S,6R)-2-Methyl-6-(3-methyl-1H-pyrazol-4-yl)-morpholin-4-yl]-pyrimidin-2-yl}-6-trifluoromethyl-imidazo[1,2-a]pyridine], the IC50 at GCN2 kinase was less than 0.01 µM; in test [1], less than 0.5 µM. The EC50 in test [2] (Homo sapiens, T-cell, 96 h) was 0.1 to 0.5 µM; in test [2] (96 hours), less than 0.1 µM.

Regarding `C[C@H]1CN(c2nccc(-c3cnc4ccc(C(F)(F)F)cn34)n2)C[C@@H](c2cn[nH]c2)O1` [I-126, (2S,6R)-2-methyl-6-(1H-pyrazol-4-yl)-4-{4-[6-(trifluoromethyl)imidazo[1,2-a]pyridin-3-yl]pyrimidin-2-yl}morpholine], the IC50 was less than 0.01 µM against GCN2 kinase and less than 0.5 µM in test [1]. Also, the EC50 in test [2] (Homo sapiens, T-cell, 96 h) lay within 0.1 to 0.5 µM.

Consider `Cc1[nH]ncc1[C@H]1C[C@@H](O)CN(c2ccnc(-c3cnc4ccc(C(F)(F)F)cn34)n2)C1` [I-315, (3R,5R)-5-(3-Methyl-1H-pyrazol-4-yl)-1-[2-(6-trifluoromethyl-imidazo[1,2-a]pyridin-3-yl)-pyrimidin-4-yl]-piperidin-3-ol], for which the IC50 at GCN2 kinase is less than 0.01 µM; in test [1], less than 0.5 µM. The EC50 in test [2] (Homo sapiens, T-cell, 96 h) lay within 0.1 to 0.5 µM.

With `C[C@H]1C[C@@H](N=S(C)(C)=O)CN(c2ccnc(-c3cnc4ccc(C(F)(F)F)cn34)n2)C1` (stereo in doubt) [I-123, Dimethyl(((3R,5S)-5-methyl-1-(2-(6-(trifluoromethyl)imidazo[1,2-a]pyridin-3-yl)pyrimidin-4-yl)piperidin-3-yl)imino)-λ6-sulfanone], the IC50 was 0.01 to 0.1 µM against GCN2 kinase and less than 0.5 µM in test [1]. Also, the EC50 in test [2] (Homo sapiens, T-cell, 96 h) is more than 0.5 µM. For the same compound, in test [2] (96 hours), the “IL2/T-cell EC50” value was “− (“−” for not active)”.

Consider `C[C@H]1CN(c2nccc(-c3cnc4ccc(Cl)cn34)n2)C[C@@H](c2cn[nH]c2)O1` [I-247, 6-Chloro-3-{2-[(2S,6R)-2-methyl-6-(1H-pyrazol-4-yl)-morpholin-4-yl]-pyrimidin-4-yl}-imidazo[1,2-a]pyridine], for which the IC50 on GCN2 kinase is less than 0.01 µM; in test [1] it was less than 0.5 µM. Also, the EC50 in test [2] (Homo sapiens, T-cell, 96 h) is less than 0.1 µM.

With `C[C@H]1[C@@H](c2cn[nH]c2)N(CC2(C)COC2)CCN1c1ccnc(-c2cnc3ccc(C(F)(F)F)cn23)n1` [I-481, 3-(4-((2 S,3R)-2-methyl-4-((3-methyloxetan-3-yl)methyl)-3-(1H-pyrazol-4-yl)piperazin-1-yl)pyrimidin-2-yl)-6-(trifluoromethyl)imidazo[1,2-a]pyridine], the figures for the IC50 (against GCN2 kinase; in test [1]) were less than 0.01 µM and less than 0.5 µM, respectively. For the same compound, the EC50 in test [2] (Homo sapiens, T-cell, 96 h) was less than 0.1 µM.

For the compound `CC1CC1CN1CCN(c2ccnc(-c3cnc4ccc(C(F)(F)F)cn34)n2)CC1c1cn[nH]c1` (centres unmarked) [I-473, 3-(4-(4-((2-methylcyclopropyl)methyl)-3-(1H-pyrazol-4-yl)piperazin-1-yl)pyrimidin-2-yl)-6-(trifluoromethyl)imidazo[1,2-a]pyridine], the IC50 against GCN2 kinase was less than 0.01 µM; in test [1] it was less than 0.5 µM. Besides, the EC50 in test [2] (Homo sapiens, T-cell, 96 h) fell in the range of 0.1 to 0.5 µM.

Turning to `C[C@H]1CN(c2nccc(-c3cnc4ccc(C(F)(F)F)cn34)n2)C[C@H](c2cn[nH]c2)O1` [I-134, (2S,6S)-2-methyl-6-(1H-pyrazol-4-yl)-4-(4-(6-(trifluoromethyl)imidazo[1,2-a]pyridin-3-yl)pyrimidin-2-yl)morpholine], the IC50 on GCN2 kinase is 0.01 to 0.1 µM; in test [1], less than 0.5 µM. The EC50 in test [2] (Homo sapiens, T-cell, 96 h) is more than 0.5 µM.

With `C[C@H]1CN(c2ccnc(-c3cnc4ccc(Cl)cn34)n2)C[C@@H](c2cn[nH]c2F)O1` [I-176, (2R,6S)-4-(2-(6-chloroimidazo[1,2-a]pyridin-3-yl)pyrimidin-4-yl)-2-(5-fluoro-1H-pyrazol-4-yl)-6-methylmorpholine], the IC50 on GCN2 kinase was less than 0.01 µM; in test [1], less than 0.5 µM. The EC50 in test [2] (Homo sapiens, T-cell, 96 h) was less than 0.1 µM.

As to `C[C@H]1C[C@@H](c2cn[nH]c2)CN(c2nccc(-c3cnc4ccc(C5CC5)cn34)n2)C1` [I-250, 6-Cyclopropyl-3-{2-[(3 S,5S)-3-methyl-5-(1H-pyrazol-4-yl)-piperidin-1-yl]-pyrimidin-4-yl}-imidazo[1,2-a]pyridine], the figures for the IC50 (against GCN2 kinase; in test [1]) were 0.01 to 0.1 µM and less than 0.5 µM, respectively. In addition, the “IL2/T-cell EC50” value in test [2] (96 hours) is “− (“−” for not active)”.

Turning to `NC(=O)[C@H]1CN(c2ccnc(-c3cnc4ccc(C(F)(F)F)cn34)n2)CCN1C1CC1` [I-323, (R)-1-cyclopropyl-4-(2-(6-(trifluoromethyl)imidazo[1,2-a]pyridin-3-yl)pyrimidin-4-yl)piperazine-2-carboxamide], the IC50 was less than 0.01 µM against GCN2 kinase and 0.5 to 5 µM in test [1]. In test [2] (Homo sapiens, T-cell, 96 h), the EC50 is more than 0.5 µM.
